Measurements as given in patent publication US20110152362A1, “METHODS OF TREATING EPILEPTOGENESIS AND EPILEPSY” (priority 2004, published 2011).
Where “and” joins values, the source holds several entries; their conditions need not be identical. Identical values can stand only once.

Key:
[1] = tested on: rats subjected to Li-pilo induced SE; assay: Example 1: mortality induced by lithium-pilocarpine status epilepticus; type: in vivo, rat; conditions: pilo-DZP, 2 mg/kg i.m. 1 h after onset of SE
Method: (§1) The bilateral EEG cortical activity was recorded during the whole duration of SE and behavioral changes were noted.
(§2) The effects of increasing doses of the Test Compound were studied on 3 groups of rats. The animals of the first group received 10 mg/kg of the test compound, i.p., 1 h after the onset of SE (pilo-TC10) while the animals of groups 2 and 3 received 30 and 60 mg/kg of the Test Compound (pilo-TC30 and pilo-TC60), respectively.
(§3) The control group received saline instead of pilocarpine and the Test Compound (saline-saline). […] Pilo-DZP received a second injection of 1 mg/kg DZP on the day of SE at about 10 h after the first one. Thereafter, Pilo-DZP and saline-saline rats received twice daily an equivalent volume of saline.

[2] = tested on: rats subjected to Li-pilo induced SE; assay: Example 1: quantification of cell densities in hippocampus, thalamus and cortex after Li-pilo SE; type: in vivo, rat; conditions: pilo-DZP rats
Method: as §2, §3
Quantification of cell densities was performed at 6 days after SE on 8 pilo-DZP, 8 pilo-TC10, 7 pilo-TC30, 7 pilo-TC60, and 6 saline-saline rats. […] Counts involved only cells larger than 10 μm, smaller ones being considered as glial cells.
For the comparison of the characteristics of SE in pilo-saline and pilo-test compound animals, a non-paired Student's t-test was used. The comparison between the number of rats seizing in both groups was performed by means of a Chi square test. For neuronal damage, statistical analysis between groups was performed using ANOVA followed by a Fisher's test for multiple comparisons using the Statview software (Fisher R A, 1946a, Statistical Methods for Research Workers (10th edition) Oliver & Boyd, Edinburgh; Fisher R A, 1946b, The Design of Experiments (4th edition) Oliver & Boyd, Edinburgh)

[3] = tested on: rats subjected to li-pilo SE; assay: Example 2: quantification of cell densities 14 days after li-pilo SE;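 further: Thionine-stained 20 µm brain sections, neurons with cell bodies above 10 µm counted, value is the mean of 12 fields per structure from three adjacent sections, both sides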
Method: All rats received lithium chloride (3 meq/kg, i.p., Sigma, St Louis, Mo., U.S.A.) and about 20 h later, all animals received also methylscopolamine bromide (1 mg/kg, s.c., Sigma) that was administered to limit the peripheral effects of the convulsant. […] The effects of increasing doses of TC were studied in 5 groups of rats. […] The control group received vehicle instead of pilocarpine and TC.
For neuronal counting, animals were deeply anesthetized with 1.8 g/kg pentobarbital (Dolethal®, Vetoquinol, Lure, France). Brains were then removed and frozen. Serial 20 μm slices were cut in a cryostat, air-dried during several days before thionine staining. […] The grid of counting was placed on a well defined area of the cerebral structure of interest and counting was carried out with a microscopic enlargement of 200- or 400-fold defined for each single cerebral structure. Cell counts were performed twice on each side of three adjacent sections for each region by a single observer unaware of the animal's treatment. The number of cells obtained in the 12 counted fields in each cerebral structure was averaged. This procedure was used to minimize the potential errors that could result from double counting leading to overestimation of cell numbers. […] Counts involved only neurons with cell bodies larger than 10 μm. Cells with small cell bodies were considered as glial cells and were not counted.
For neuronal damage and epileptogenesis, statistical analysis between groups was performed by means of a one-way analysis of variance followed by a post-hoc Dunnett or Fisher test using the Statistica software.

[4] = tested on: rats subjected to Li-pilo induced SE; assay: Example 1: Timm staining, mossy fiber sprouting in hippocampus; type: in vivo, rat; conditions: pilo-DZP rats
Method: At 2 months after the onset of spontaneous recurrent seizures, mossy fiber sprouting was examined on rats in the chronic period exposed to the test compound or DZP and in 3 saline-saline rats. Animals were deeply anaesthetized and perfused transcardially with saline followed by 100 ml of 1.15% (w/v) Na2S in 0.1 M phosphate buffer, and 100 ml of 4% (v/v) formaldehyde in 0.1 M phosphate buffer. Brains were removed from skull, post-fixed in 4% formaldehyde during 3-5 h and 40 μm sections were cut on a sliding vibratome and mounted on gelatin-coated slides.
The following day, sections were developed in the dark in a 26° C. solution of 50% (w/v) arabic gum (160 ml), sodium citrate buffer (30 ml), 5.7% (w/v) hydroquinone (80 ml) and 10% (w/v) silver nitrate (2.5 ml) during 40-45 min. The sections were then rinsed with tap water at 40° C. during at least 45 min, rinsed rapidly with distilled water and allowed to dry. They were dehydrated in ethanol and coverslipped.
Mossy fiber sprouting was evaluated according to criteria previously described in dorsal hippocampus (Cavazos et al., 1991, J Neurosci 11:2795-2803.), which are follows: 0—no granules between the tips and crest of the DG; 1—sparse granules in the supragranular region in a patchy distribution between the tips and crest of DG; 2—more numerous granules in a continuous distribution between the tips and crest of DG; 3—prominent granules in a continuous pattern between tips and crest, with occasional patches of confluent granules between tips and crest; 4—prominent granules that form a confluent dense laminar band between tips and crest and 5—confluent dense laminar band of granules that extends into the inner molecular layer.

[5] = tested on: rats subjected to Li-pilo induced SE; assay: Example 1: latency to and frequency of spontaneous recurrent seizures (SRS), lithium-pilocarpine model; type: in vivo, rat
Method: as §1, §2, §3
The effects of the test compound on the EEG and on the latency to occurrence of SRS were investigated by daily video recording of the animals for 10 h per day and the recording of the electrographic activity twice a week for 8 h.
To calculate the frequency of SRS in pilocarpine-exposed rats, the seizure severity and distinguished stage III (clonic seizures of facial muscles and anterior limbs) and stage IV-V seizures (rearing and falling) was measured. The frequency of stage III SRS per week in pilo-DZP and pilo-test compound rats was variable amongst the groups. It was low, constant in the pilo-DZP and pilo-TC60 (with early SRS onset) groups during the first 3 weeks and had disappeared during the 4th week in the pilo-DZP group. […] The frequency of more severe stage IV-V SRS was highest during the first week in most groups, except pilo-TC30 and TC60 with late seizure onset where the SRS frequency was constant over the whole 4 weeks in TC30 group and over the first two weeks in the pilo-TC60 group with late SRS onset in which no stage IV-V seizures where no seizures recorded after the second week.

[6] = tested on: rats subjected to li-pilo SE; assay: Example 2: mortality over the first 48 h after Li-pilo SE; type: in vivo, rat; parameters: concentration or dose not given beside the values; conditions: DZP
[7] = tested on: rats subjected to li-pilo SE; assay: Example 2: latency to and frequency of spontaneous seizures (video recording); type: in vivo, rat; conditions: DZP group, 2.5 mg/kg i.m.; 2.5 mg/kg
Method: The effects of DZP and the 4 doses of TC on epileptogenesis were investigated by daily video recording of the animals for 10 h per day. Video recording was performed for 4 weeks during which the occurrence of the first seizure was noted as well as the total number of seizures over the whole period. Animals were then taken off the video recording system and kept for 4 additional weeks in our animal facilities before they were sacrificed after a total period of 8 weeks of epilepsy.

[8] = pilo-DZP (DZP 2.5 mg/kg i.m.), 14 days after li-pilo SE

SMILES: CN1C(=O)CN=C(c2ccccc2)c2cc(Cl)ccc21 [DZP, diazepam, reference compound]
- mortality during the first 48 h after SE [1]: 23%
- cell loss vs saline-saline, CA1 pyramidal cell layer [2]: 70% and 75%
- cell loss vs saline-saline, CA3a [2]: 54%
- cell loss vs saline-saline, CA3b [2]: 31%
- cell loss vs saline-saline, hilus of dentate gyrus [2]: 73%
- cell loss vs saline-saline, lateral thalamic nucleus [2]: 91%
- cell loss vs saline-saline, mediodorsal thalamic nucleus [2]: 56%
- cell loss vs saline-saline, piriform cortex layer II [2]: 53%
- cell loss vs saline-saline, ventral entorhinal cortex layers III-IV [2]: 44%
- cell loss, piriform cortex layers III-IV [2]: total
- damage vs saline-saline, dorsal entorhinal cortex layer II [2]: 9%
- damage vs saline-saline, dorsal entorhinal cortex layers III-IV [2]: 15%
- damage, ventral entorhinal cortex layer II [2]: totally preserved
- neurons surviving in entorhinal cortex, dorsal and ventral ([3]; DZP group, 14 days after SE): 27-81%
- damage vs control, dorsal entorhinal cortex layer II ([3]; DZP rats, 14 days after SE): 18%
- damage vs control, dorsal entorhinal cortex layers III-IV ([3]; DZP rats, 14 days after SE): 24%
- damage vs control, ventral entorhinal cortex layer II ([3]; DZP rats, 14 days after SE): 22% and 19%
- damage vs control, ventral entorhinal cortex layers III/IV ([3]; DZP rats, 14 days after SE): 74% and 73%
- neuronal damage, amygdala central nucleus ([3]; DZP rats, 14 days after SE): no neuronal damage
- neuronal drop out vs control, CA1 pyramidal cell layer ([3]; DZP rats, 14 days after SE): 85%
- neuronal drop out vs control, amygdala basolateral nucleus ([3]; DZP rats, 14 days after SE): 73%
- neuronal drop out vs control, amygdala medial dorsal anterior nucleus ([3]; DZP rats, 14 days after SE): 53%
- neuronal drop out vs control, thalamus central medial nucleus ([3]; DZP rats, 14 days after SE): 34%
- neuronal drop out vs control, thalamus dorsolateral medial dorsal nucleus ([3]; DZP rats, 14 days after SE): 40%
- neuronal drop out vs control, thalamus mediodorsal central nucleus ([3]; DZP rats, 14 days after SE): 18%
- neuronal drop out vs control, thalamus mediodorsal lateral nucleus ([3]; DZP rats, 14 days after SE): 24%
- neuronal loss vs control, CA3 region ([3]; DZP rats, 14 days after SE): 40%
- neuronal loss vs control, amygdala medial ventral posterior nucleus ([3]; DZP rats, 14 days after SE): 38%
- neuronal loss vs control, hilus of dentate gyrus ([3]; DZP rats, 14 days after SE): 65% and 66%
- neuronal loss vs control, piriform cortex dorsal layer II ([3]; DZP rats, 14 days after SE): 66%
- neuronal loss vs control, piriform cortex layer III ([3]; DZP rats, 14 days after SE): 94%
- neuronal loss vs control, piriform cortex ventral layer II ([3]; DZP rats, 14 days after SE): 89%
- neuronal loss vs control, thalamus mediodorsal nucleus ([3]; DZP rats, 14 days after SE): 49%
- neuronal loss vs control, ventral lateral division of the dorsolateral nucleus ([3]; DZP rats, 14 days after SE): 90%
- number of neuronal cell bodies: Amygdala Basolateral [3, 8]: 12.8 ± 5.3
- number of neuronal cell bodies: Amygdala Medial, dorsal anterior [3, 8]: 40.0 ± 2.5
- number of neuronal cell bodies: Amygdala Medial, ventral posterior [3, 8]: 21.8 ± 2.4
- number of neuronal cell bodies: Cerebral cortex Entorhinal, layer II, dorsal [3, 8]: 23.5 ± 0.7
- number of neuronal cell bodies: Cerebral cortex Entorhinal, layer II, ventral [3, 8]: 21.7 ± 1.3
- number of neuronal cell bodies: Cerebral cortex Entorhinal, layer III/IV, dorsal [3, 8]: 22.3 ± 0.5
- number of neuronal cell bodies: Cerebral cortex Entorhinal, layer III/IV, ventral [3, 8]: 7.7 ± 2.3
- number of neuronal cell bodies: Cerebral cortex Piriform, layer II, dorsal [3, 8]: 12.6 ± 4.2
- number of neuronal cell bodies: Cerebral cortex Piriform, layer II, ventral [3, 8]: 3.6 ± 0.7
- number of neuronal cell bodies: Cerebral cortex Piriform, layer III [3, 8]: 1.2 ± 1.2
- number of neuronal cell bodies: Hippocampus CA1 area [3, 8]: 10.9 ± 1.9
- number of neuronal cell bodies: Hippocampus CA3 area [3, 8]: 31.3 ± 2.9
- number of neuronal cell bodies: Hippocampus Hilus [3, 8]: 33.5 ± 3.0
- number of neuronal cell bodies: Thalamus Central medial [3, 8]: 74.2 ± 7.4
- number of neuronal cell bodies: Thalamus Dorsolateral, medial, dorsal [3, 8]: 61 ± 6.3
- number of neuronal cell bodies: Thalamus Dorsolateral, ventral lateral [3, 8]: 9.7 ± 2.5
- number of neuronal cell bodies: Thalamus Mediodorsal central [3, 8]: 26.3 ± 1.8
- number of neuronal cell bodies: Thalamus Mediodorsal lateral [3, 8]: 19.6 ± 0.8
- number of neuronal cell bodies: Thalamus Mediodorsal medial [3, 8]: 16.4 ± 1.9
- Timm score in the upper blade of the dentate gyrus, mean [4]: 2.8±0.8
- frequency of stage IV-V SRS ([5]; first week, pilo-DZP group): 11.3 SRS per week
- latency to SRS ([5]; pilo-DZP rats): 18.2 ± 6.9 days
- mortality over the first 48 h after SE ([6]; group for cell counting at 14 days): 36%
- mortality over the first 48 h after SE ([6]; group for latency to SRS and late cell counting): 7%
- Latency to the first spontaneous seizure [7]: 15.5 ± 2.3 days and 15.5 ± 2.34 days
